Experimental data published in patent US6613920B1, “Vitamin D derivatives with carbo- or heterocyclic substituents at C-25, process for their production, intermediate products and use for the production of pharmaceutical agents” (Schering Aktiengesellschaft, priority 1996, dated 2003).

Key:
[1] = system: HL 60 cells; assay: differentiation induction of HL 60 cells to macrophages (NBT reduction); format: cell-based, human; conditions: DR = test substance dose / calcitriol dose for comparable semi-maximum actions; 96 hours incubation
Experimental: The differentiation-stimulating action of calcitriol analogues is also detected quantitatively.
It is known in the literature [Mangelsdorf, D. J. et al., J. Cell.
HL 60 cells are cultivated in tissue culture medium (RPMI 10% fetal calf serum) at 37° C. in an atmosphere of 5% CO2 in air.
For substance testing, the cells are centrifuged off, and 2.0×10^5 cells/ml in phenol red-free tissue culture medium is taken up. The test substances are dissolved in ethanol and diluted with tissue culture medium without phenol red to the desired concentration. The dilution stages are mixed with the cell suspension at a ratio of 1:10, and 100 μl each of this cell suspension that is mixed with substance is pipetted into an indentation of a 96-hole plate. For control, a cell suspension is mixed analogously with the solvent.
After incubation for 96 hours at 37° C. in 5% CO2 in air, 100 μl of an NBT-TPA solution (nitro blue tetrazolium (NBT), final concentration in the batch of 1 mg/ml, tetradecanoyl phorbolmyristate-13-acetate (TPA), final concentration in the batch of 2×10^−7 mol/l) is pipetted into each indentation of the 96-hole plate in the cell suspension.
By incubation for 2 hours at 37° C. and 5% CO2 in air, NBT is reduced to insoluble formazan because of the intracellular oxygen radical release, stimulated by TPA, in the cells that are differentiated to macrophages.
To complete the reaction, the indentations of the 96-hole plate are suctioned off, and the cells are affixed to the bottom of the plate by adding methanol and dried after affixing. To dissolve the intracellular formazan crystals that are formed, 100 μl of potassium hydroxide (2 mol/l) and 100 μl of dimethyl sulfoxide are pipetted into each indentation and ultrasonically treated for 1 minute. The concentration of formazan is measured by spectrophotometry at 650 nm.
As a yardstick for the differentiation induction of HL 60 cells to macrophages, the concentration of formed formazan applies.

[2] = molecular target: T1, calcitriol receptor (specific receptor protein from the intestines of juvenile pigs) (Sus scrofa, UniProt A3RGC1); assay: calcitriol-receptor test (competition with 3H-calcitriol); format: binding, pig; conditions: KF = concentration of test substance / concentration of calcitriol at 50% competition
T1 construct: a specific receptor protein from the intestines of juvenile pigs; from tissue; host or cells: intestines of juvenile pigs
T1 sequence (A3RGC1 1-427): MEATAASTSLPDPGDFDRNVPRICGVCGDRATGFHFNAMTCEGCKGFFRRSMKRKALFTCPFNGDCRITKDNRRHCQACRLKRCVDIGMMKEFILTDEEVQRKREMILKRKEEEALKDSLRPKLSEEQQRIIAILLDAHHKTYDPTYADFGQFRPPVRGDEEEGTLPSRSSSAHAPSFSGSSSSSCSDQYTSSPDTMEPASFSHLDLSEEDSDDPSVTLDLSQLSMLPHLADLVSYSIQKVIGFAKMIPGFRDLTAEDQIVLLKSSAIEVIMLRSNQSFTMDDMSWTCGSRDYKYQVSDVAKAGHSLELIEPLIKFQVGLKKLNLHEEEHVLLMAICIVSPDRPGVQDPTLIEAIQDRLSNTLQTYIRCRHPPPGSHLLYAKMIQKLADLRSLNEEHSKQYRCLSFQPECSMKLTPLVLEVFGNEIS

[3] = system: HL 60 cells; assay: antagonism of the action of calcitriol in HL 60 cells; format: cell-based, human
Text: In the series of 25-oxazole derivatives, the compounds with increasing chain length on the heterocycle in the case of constantly good receptor affinity show considerably weaker differentiation-stimulating agonistic activity in HL 60 cells (Tab. 1). […] This property is continued with increasing chain length in radical Z of general formula I.

[4] = acute hypercalcemic action in rats (serum calcium); format: in vivo; conditions: one-time subcutaneous administration, DR = test substance dose / calcitriol dose for comparable actions
Experimental: To determine the acute hypercalcemic action of various calcitriol derivatives, the test that is described below is carried out:
During the testing time, the rats are kept in special cages to determine the excretion of water and mineral substances. Urine is collected in 2 fractions (0-16 hours and 16-22 hours). An oral dose of calcium (0.1 mmol of calcium in 6.5% alpha-hydroxypropylcellulose, 5 ml/animal) replaces at 1600 hours the calcium intake that is lacking by food deprivation. At the end of the test, the animals are killed by decapitation and exsanguinated to determine the serum-calcium values. For the primary screen test in vivo, an individual standard dose (200 μg/kg) is tested. For selected substances, the result is supported by establishing a dose-effect relation.
A hypercalcemic action is shown in serum-calcium level values that are higher than in the control.
The significance of differences between substance groups and controls and between test substance and reference substance are supported with suitable statistical processes.

Competition Factor KF for Receptor Bonding [2] | dose ratio DR for hypercalcemia [4] | SMILES | Dose Ratio for Differentiation Induction in HL 60 Cells [1] | antagonism of the action of calcitriol in HL 60 cells [3]
3 |  | C=C1/C(=C\C=C2/CCC[C@]3(C)[C@@H]([C@H](C)/C=C/[C@@H](O)C4(c5ncc(CC)o5)CC4)CC[C@@H]23)C[C@@H](O)C[C@@H]1O [Compound 16, (5Z,7E,22E)-(1S,3R,24R)-25-(5-ethyloxazol-2-yl)-26,27-cyclo-9,10-secocholesta-5,7,10(19),22-tetraene-1,3,24-triol] | 1.3 | antagonize the action of calcitriol
2 | 300 | C=C1/C(=C\C=C2/CCC[C@]3(C)[C@@H]([C@H](C)/C=C/[C@@H](O)C4(c5ncc(CCC)o5)CC4)CC[C@@H]23)C[C@@H](O)C[C@@H]1O [Compound 14, (5Z,7E,22E)-(1S,3R,24R)-25-(5-Propyloxazol-2-yl)-26,27-cyclo-9,10-secocholesta-5,7,10(19),22-tetraene-1,3,24-triol] | 1.9 | 
4 |  | C=C1C(=CC=C2CCCC3(C)C2CCC3C(C)C=CC(O)C2(c3ncc(CCCCC)o3)CC2)CC(O)CC1O [Compound 17, (5Z,7E,22E)-(1S,3R,24R)-25-(5-pentyloxazol-2-yl)-26,27-cyclo-9,10-secocholesta-5,7,10(19),22-tetraene-1,3,24-triol] | >100 | antagonize the action of calcitriol
2 |  | C=C1C(=CC=C2CCCC3(C)C2CCC3C(C)C=CC(O)C2(c3ncc(C)o3)CC2)CC(O)CC1O [Compound 15, (5Z,7E,22E)-(1S,3R,24R)-25-(5-methyloxazol-2-yl)-26,27-cyclo-9,10-secocholesta-5,7,10(19),22-tetraene-1,3,24-triol] | 3.4 | 
